Laboratory results published in patent US20180028487A1, “DERMATOLOGICAL FORMULATIONS OF 2-(2-ETHOXY-2-OXOETHYL)(METHYL)AMINO-2-OXOETHYL 5-(TETRADECYLOXY)FURAN-2-CARBOXYLATE” (Dermira Inc., priority 2016, published 2018).

Experiments:
[1] = Solubility in solvents / vehicle; type: physicochemical
Text: In various embodiments, the dermatologically acceptable vehicle comprises dimethyl isosorbide and one or more alcohols. […] DMI is freely miscible with alcohols such as ethanol, isopropanol (IPA), polyols such as polyethylene glycol (PEG 200 or PEG 400), or a mixture thereof. By adjusting the relevant amounts of DMI and the alcohol(s), the solubility and saturation of the active ingredient in the dermatological formulation can be adjusted to maximize the thermodynamic activity of the active ingredient in the gel. In a specific embodiment, the dermatologically acceptable vehicle comprises, by weight ratios, 50 parts ethanol, 20 parts IPA, 15.5 parts PEG400, and 12.5 parts DMI. The vehicle is typically a clear gel, and bears the same appearance with or without the active ingredient.
In certain embodiment, the crystalline product form is a white crystalline solid with a low-melting point (64-66° C.), having solubility of about 90 mg/g (±5 mg/g) in a solvent system comprising Ethanol/IPA/PEG 400/DMI at 50/20/15.5/12.5 (w/w).

[2] = Stability studies on non-GMP and GMP material; type: physicochemical
Experimental: Stability studies conducted on non-GMP and GMP material have shown chemical stability the compound of Formula (Ia) for 24 months at 5° C. and 25° C./60% Relative Humidity (RH); and for 6 months at 40° C./75% RH.

[3] = test system: acne vulgaris on the face; assay: Dose range study, efficacy (Example 5); type: in vivo, human; details: for LS mean change in noninflammatory lesion counts: Week 12; for LS mean change in inflammatory lesion counts / percentage of subjects achieving minimum 2-grade improvement in IGA score: baseline to Week 12
Experimental: Dose ranges were determined in adult subjects with acne vulgaris on the face. The study was a randomized, vehicle controlled, parallel group study designed to assess the efficacy and safety of the active formulations comprising a compound of Formula (Ia) at a concentration of 7.5% BID, 7.5% QD, and 4.0% QD, respectively. The results were compared to those of vehicle formulation (BID or QD) on subjects with moderate to severe facial acne. A total of 420 adult subjects were randomized to active formulations (7.5% BID, 7.5% QD, and 4.0% QD) and vehicle (BID and QD) in a 2:2:2:1:1 fashion. Study treatments continued for 12 weeks. Subjects returned to the study clinic at Weeks 1, 2 (phone call only), 4, 8 and 12 (study exit). Primary efficacy endpoints for this study were 1) the mean absolute change from baseline to Week 12 in inflammatory and noninflammatory lesion counts and 2) the proportion of subjects who achieved a 2-grade improvement in the IGA from baseline to Week 12. Absolute change from baseline to Week 12 in inflammatory and non-inflammatory lesion counts was analyzed using an analysis of covariance (ANCOVA) model with a factor of treatment and the respective baseline lesion count as a covariate. The proportion of subjects who are dichotomized to success (minimum 2-grade improvement from baseline in IGA score) at Week 12 was analyzed using a Cochran-Mantel-Haenszel (CMH) test. Exploratory analyses were conducted for linearity of a dose response for the proportion of subjects dichotomized to an IGA success.

[4] = Dose range study, pharmacokinetics: plasma concentrations (Example 5); type: in vivo, human; details: for systemic absorption: topical application at 7.5% strength, twice daily for 12 weeks
Experimental: A subset of study centers enrolled subjects for an assessment of PK. Blood was to be collected from approximately 10 subjects per treatment group. At the Day 1 and Week 8 visits, a predose blood sample was collected prior to the first application of study drug for the day; samples were then collected at 1, 2, 3, and 4 hours after application of study drug.

[5] = Dose range study, safety and tolerability (Example 5); type: in vivo, human; details: 4.0% QD, 7.5% QD and 7.5% BID, 12-week treatment period
Experimental: Safety was assessed through adverse events (AEs), local skin responses (LSRs, determined by the presence and severity of erythema, dryness, peeling, burning/stinging, and pruritus), laboratory tests (serum chemistry, and hematology), vital signs, and physical examinations.

[6] = cited from earlier work

Compound: CCCCCCCCCCCCCCOc1ccc(C(=O)OCC(=O)N(C)CC(=O)OCC)o1 [Formula (Ia), 2-((2-ethoxy-2-oxoethyl)(methyl)amino)-2-oxoethyl 5 (tetradecyloxy) furan-2-carboxylate]
- solubility ([1]; crystalline product form, solvent system Ethanol/IPA/PEG 400/DMI at 50/20/15.5/12.5 (w/w)): about 90 mg/g
- solubility ([1]; in dimethyl isosorbide (DMI)): about 125 mg/g
- chemical stability ([2]; 5° C.): 24 months
- stability of the crystal form ([2]; 5° C.): up to 36 months
- stability of the crystal form ([2]; 25° C./60% RH): up to 36 months
- chemical stability ([2]; 25° C./60% Relative Humidity (RH)): 24 months
- stability of the crystal form ([2]; 30° C./65% RH): up to 27 months
- chemical stability ([2]; 40° C./75% RH): 6 months
- LS mean change in noninflammatory lesion counts ([3]; 4.0% QD): −15.3
- LS mean change in inflammatory lesion counts ([3]; 4.0% QD): −14.6
- percentage of subjects achieving minimum 2-grade improvement in IGA score ([3]; 4.0% QD): 21.6%
- LS mean change in noninflammatory lesion counts ([3]; 7.5% BID): −17.5
- LS mean change in inflammatory lesion counts ([3]; 7.5% BID): −15.0
- percentage of subjects achieving minimum 2-grade improvement in IGA score ([3]; 7.5% BID): 25.9%
- LS mean change in noninflammatory lesion counts ([3]; 7.5% QD): −13.4
- LS mean change in inflammatory lesion counts ([3]; 7.5% QD): −14.5
- plasma concentration of Compound of Formula (Ia) ([4]; Day 1, topical, all but one subject): undetectable
- plasma concentration of Compound of Formula (Ia) ([4]; Week 8, all tested subjects): undetectable
- concentration at 2 h ([4]; human, plasma, topical, Day 1, one subject, one time point (2 hours post-dosing), read-out: plasma concentration of Compound of Formula (Ia)): 0.304 ng/mL
- systemic absorption [4]: little or no
- tolerability [5]: well tolerated

Compound: CCCCCCCCCCCCCCOc1ccc(C(=O)O)o1 [TOFA, 5-(tetradecyloxy)-2-furoic acid, reference compound]
- systemic absorption [4]: little or no
- bioavailability through the skin [6]: poor
